Molecules are shown by their SMILES. Where only a bound is given, the exact number is not on record here.

This assay deals with SK-BR-3 cancer cells. Briefly: Inhibitory activity against proliferation of SK-BR-3 cancer cells (CellTiter-Glo). It is filed as cell-based. The conditions noted are these: Homo sapiens, SK-BR-3, 120 h, ErbB2-overexpressing SK-BR-3 cells, 120 hours after treatment. The protocol:
To evaluate the inhibitory activity of a compound according to the present invention against the proliferation of ErbB2-overexpressing cancer cells, the following experiment were performed.
10% FBS-added McCOY'S 5A was used for SK-BR-3 cancer cells. 20% FBS-added RPMI-1640 was used for BT-474 cancer cells. Transduced Ba/F3 cells were cultured in a RPMI-1640 medium to which 1 μg/ml puromycin (Invitrogen) was added.
48 hours before compound treatment, each type of the SK-BR-3 and BT-474 cells were seeded at 5,000 cells/well in a white clear bottom 96 well plate (Corning). The compound was diluted in dimethyl sulfoxide (SK-BR-3: 3-fold dilution, a total of 12 concentrations, BT-474: […], a total of 12 concentrations) and injected at 1 μl to have the final concentration of 0.2 nM to 5 μM. As for measurement of live cells, 120 hours after treatment with the compound, a CellTiter-Glo luminescent cell-viability reagent (Promega) was used to store the cells at room temperature for 10 minutes, followed by measurement of luminescence using a reader (SynergyNeo, Biotek). Each test was repeated three times.
The result values were calculated as a cell growth rate (%) compared to the control group. A graph was plotted using the GraphPad Prism version 8.3.0 program, and GI50 values were calculated.
(In ATP-based viability assays light output follows the ATP content of the culture.)

The term GI50 denotes the concentration that inhibits growth by half. Regarding `C=CC(=O)Nc1cc(Nc2cc(N3OCCC3c3cccc(-c4cc(F)cc(F)c4)c3)ncn2)c(OC)cc1N1CCC(N2CCN(C3CC3)CC2)CC1` (stereo not drawn) [Example 249, N-(2-(4-(4-cyclo-propylpiperazin-1-yl)piperidin-1-yl)-5-((6-(3-(3′,5′-difluoro-[1,1′-biphenyl]-3-yl)-isoxazolidin-2-yl)-pyrimidin-4-yl)-amino)-4-methoxy-phenyl)acrylamide], the GI50 fell in the range of 50 to 500 nM. Then `C=CC(=O)Nc1cc(Nc2cc(N3OCCC3c3cccc(-c4cccc(C#N)c4)c3)ncn2)c(OC)cc1N1CCC(N2CCN(C3CC3)CC2)CC1` (stereo not drawn) [Example 250, N-(5-((6-(3-(3′-cyano-[1,1′-biphen-yl]-3-yl)isoxazol-idin-2-yl)pyrim-idin-4-yl)amino)-2-(4-(4-cycloprop-ylpiperazin-1-yl)-piperidin-1-yl)-4-methoxyphenyl)-acrylamide], with less than 50 nM; and `C=CC(=O)Nc1cc(Nc2cc(N3OCC[C@H]3c3cccc(-c4cccc(F)c4)c3F)ncn2)c(OC)cc1N1CCC(N2CCN(C3CC3)CC2)CC1` [Example 251, (S)-N-(2-(4-(4-cyclopropylpiper-azin-1-yl)piper-idin-1-yl)-5-((6-(3-(2,3′-difluoro-[1,1′-biphenyl]-3-yl)-isoxazolidin-2-yl)-pyrimidin-4-yl)-amino)-4-methoxy-phenyl)acrylamide], with 500 to 5000 nM. For the compound `C=CC(=O)Nc1cc(Nc2cc(N3OCC[C@@H]3c3cccc(-c4cccc(F)c4)c3F)ncn2)c(OC)cc1N1CCC(N2CCN(C3CC3)CC2)CC1` [Example 252, (R)-N-(2-(4-(4-cyclopropylpiper-azin-1-yl)piper-idin-1-yl)-5-((6-(3-(2,3′-difluoro-[1,1′-biphenyl]-3-yl)isoxazolidin-2-yl)pyrimidin-4-yl)-amino)-4-methoxy-phenyl)acrylamide], the GI50 is less than 50 nM. Then `C=CC(=O)Nc1cc(Nc2cc(N3OCC[C@@H]3c3cccc(C(=O)NC4CCCCC4)c3)ncn2)c(OC)cc1N1CCC(N2CCN(C3CC3)CC2)CC1` [Example 254, (R)-3-(2-(6-((5-acrylamido-4-(4-(4-cyclopropyl-piperazin-1-yl)-piperidin-1-yl)-2-methoxyphenyl)-amino)pyrimidin-4-yl)isoxazolidin-3-yl)-N-cyclohex-ylbenzamide], with less than 50 nM.

Turning to `COc1cc(F)c(NC(=O)/C=C/CN(C)C)cc1Nc1cc(N2OCC[C@@H]2c2ccc(F)c(OCc3cccc(F)c3)c2)ncn1` [Example 255, (R,E)-4-(dimethyl-amino)-N-(2-fluoro-5-((6-(3-(4-fluoro-3-((3-fluorobenzyl)oxy)-phenyl)isoxazol-idin-2-yl)pyrim-idin-4-yl)amino)-4-methoxyphen-yl)but-2-enamide], the GI50 lay within 50 to 500 nM.

Consider `C=CC(=O)Nc1cc(Nc2cc(N3OCC[C@@H]3c3ccc(C)c(OCc4cccc(F)c4)c3)ncn2)c(OC)cc1N1CCN(C)CC1` [Example 256, (R)-N-(5-((6-(3-(3-((3-fluorobenz-yl)oxy)-4-methyl-phenyl)isoxazol-idin-2-yl)pyrim-idin-4-yl)amino)-4-methoxy-2-(4-methylpiperazin-1-yl)phenyl)-acrylamide], for which the 50% growth inhibitory concentration (GI50) is 50 to 500 nM. As to `C=CC(=O)Nc1cc(Nc2cc(N3OCC[C@@H]3c3ccc(C)c(OCc4cccc(F)c4)c3)ncn2)c(OC)cc1N(C)CCN(C)C` [Example 257, (R)-N-(2-((2-(dimethylamino)-ethyl)(methyl)-amino)-5-((6-(3-(3-((3-fluorobenz-yl)oxy)-4-methyl-phenyl)isoxazol-idin-2-yl)pyrim-idin-4-yl)amino)-4-methoxyphen-yl)acrylamide], the 50% growth inhibitory concentration (GI50) was less than 50 nM.

As for `C=CC(=O)Nc1cc(Nc2cc(N3OCC[C@@H]3c3ccc(C)c(OCc4cccc(F)c4)c3)ncn2)c(OC)cc1F` [Example 258, (R)-N-(2-fluoro-5-((6-(3-(3-((3-fluorobenzyl)oxy)-4-methylphenyl)-isoxazolidin-2-yl)-pyrimidin-4-yl)-amino)-4-methoxy-phenyl)acrylamide], the GI50 was in the range of 500 to 5000 nM.

As to `C=CC(=O)Nc1cc(Nc2cc(N3OCC[C@@H]3c3ccc(F)c(Oc4cccc(C(F)(F)F)c4)c3)ncn2)c(OC)cc1N1CCN(C)CC1` [Example 259, (R)-N-(5-((6-(3-(4-fluoro-3-(3-(trifluoromethyl)-phenoxy)phenyl)-isoxazolidin-2-yl)-pyrimidin-4-yl)-amino)-4-meth-oxy-2-(4-methyl-piperazin-1-yl)-phenyl)acrylamide], the GI50 lay within 50 to 500 nM. With `C=CC(=O)Nc1cc(Nc2cc(N3OCC[C@@H]3c3ccc(F)c(Oc4cccc(C(F)(F)F)c4)c3)ncn2)c(OC)cc1N(C)CCN(C)C` [Example 260, (R)-N-(2-((2-(dimethylamino)-ethyl)(methyl)-amino)-5-((6-(3-(4-fluoro-3-(3-(trifluoromethyl)-phenoxy)phenyl)-isoxazolidin-2-yl)-pyrimidin-4-yl)-amino)-4-methoxy-phenyl)acrylamide] the figure was 50 to 500 nM; with `C=CC(=O)Nc1cc(Nc2cc(N3OCCC3c3cccc(-c4cccc(F)c4)c3)ncn2)c(OC)cc1N(C)CCN(C)C` (stereo not drawn) [Example 261, N-(2-((2-(dimeth-ylamino)ethyl)-(methyl)amino)-5-((6-(3-(3′-fluoro-[1,1′-biphenyl]-3-yl)isoxazolidin-2-yl)pyrimidin-4-yl)-amino)-4-methoxy-phenyl)acrylamide], less than 50 nM. Then `C=CC(=O)Nc1cc(Nc2cc(N3OCC[C@@H]3c3cccc(-c4cnc5ccnn5c4)c3)ncn2)c(OC)cc1N1CCN(C)CC1` [Example 262, (R)-N-(4-methoxy-2-(4-methylpiper-azin-1-yl)-5-((6-(3-(3-(pyrazolo[1,5-a]pyrimidin-6-yl)-phenyl)isoxazol-idin-2-yl)pyrim-idin-4-yl)amino)-phenyl)acrylamide], with less than 50 nM. Turning to `C=CC(=O)Nc1cc(Nc2cc(N3OCC[C@@H]3c3cccc(-c4cnc5ccnn5c4)c3)ncn2)c(OC)cc1N(C)CCN(C)C` [Example 263, (R)-N-(2-((2-(dimethylamino)-ethyl)(methyl)-amino)-4-methoxy-5-((6-(3-(3-(pyr-azolo[1,5-a]pyrim-idin-6-yl)phenyl)-isoxazolidin-2-yl)-pyrimidin-4-yl)-amino)phenyl)-acrylamide], the GI50 is less than 50 nM. With `C=CC(=O)Nc1cc(Nc2cc(N3OCC[C@@H]3c3cccc(-c4cnc5ccnn5c4)c3)ncn2)c(OC)cc1N1CCOCC1` [Example 264, (R)-N-(4-methoxy-2-morpholino-5-((6-(3-(3-(pyraz-olo[1,5-a]pyrim-idin-6-yl)phenyl)-isoxazolidin-2-yl)-pyrimidin-4-yl)-amino)phenyl)-acrylamide] the figure was less than 50 nM; with `C=CC(=O)Nc1cc(Nc2cc(N3OCC[C@@H]3c3cccc(-c4ccc5ncnn5c4)c3)ncn2)c(OC)cc1N1CCN(C)CC1` [Example 266, (R)-N-(5-((6-(3-(3-([1,2,4]triazolo-[1,5-a]pyridin-6-yl)phenyl)isoxazol-idin-2-yl)pyrim-idin-4-yl)amino)-4-methoxy-2-(4-methylpiperazin-1-yl)phenyl)acryl-amide], less than 50 nM. With `C=CC(=O)Nc1cc(Nc2cc(N3OCCC3c3cccc(-c4cc(F)cc(F)c4)c3)ncn2)c(OC)cc1N1CCN(C)CC1` (stereo not drawn) [Example 267, N-(5-((6-(3-(3′,5′-difluoro-[1,1′-biphenyl]-3-yl)-isoxazolidin-2-yl)-pyrimidin-4-yl)-amino)-4-methoxy-2-(4-methylpiper-azin-1-yl)phenyl)-acrylamide] the figure was less than 50 nM. Take `C=CC(=O)Nc1cc(Nc2cc(N3OCC[C@@H]3c3cccc(-c4ccn5ncnc5c4)c3)ncn2)c(OC)cc1N1CCN(C)CC1` [Example 268, (R)-N-(5-((6-(3-(3-([1,2,4]triazolo-[1,5-a]pyridin-7-yl)phenyl)isoxazol-idin-2-yl)pyrim-idin-4-yl)amino)-4-methoxy-2-(4-methylpiperazin-1-yl)phenyl)-acrylamide]: the GI50 was less than 50 nM.

Take `C=CC(=O)Nc1cc(Nc2cc(N3OCC[C@@H]3c3cccc(-c4cc(F)cc(F)c4)c3)ncn2)c(OC)cc1N1CCC(N2CCN(C3CC3)CC2)CC1` [Example 269, (R)-N-(2-(4-(4-cyclopropylpiper-azin-1-yl)piper-idin-1-yl)-5-((6-(3-(3′,5′-difluoro-[1,1′-biphenyl]-3-yl)isoxazolidin-2-yl)pyrimidin-4-yl)-amino)-4-methoxy-phenyl)acrylamide]: the GI50 was less than 50 nM. Then `C=CC(=O)Nc1cc(Nc2cc(N3OCC[C@@H]3c3cccc(-c4cc(F)cc(F)c4)c3)ncn2)c(OC)cc1N1CCO[C@H](C)C1` [Example 270, N-(5-((6-((R)-3-(3′,5′-difluoro-[1,1′-biphenyl]-3-yl)-isoxazolidin-2-yl)-pyrimidin-4-yl)-amino)-4-methoxy-2-((R)-2-methyl-morpholino)phen-yl)acrylamide], with less than 50 nM; and `C=CCN1CCN(c2cc(OC)c(Nc3cc(N4OCC[C@@H]4c4cccc(-c5cc(F)cc(F)c5)c4)ncn3)cc2NC(=O)C=C)CC1` [Example 271, (R)-N-(2-(4-allyl-piperazin-1-yl)-5-((6-(3-(3′,5′-difluoro-[1,1′-biphen-yl]-3-yl)-isoxazolidin-2-yl)-pyrimidin-4-yl)-amino)-4-methoxy-phenyl)acrylamide], with less than 50 nM.

Source of the values: US20240262815A1, “HETEROARYL DERIVATIVE, METHOD FOR PREPARING SAME, AND PHARMACEUTICAL COMPOSITION COMPRISING SAME AS ACTIVE INGREDIENT” (VORONOI INC., priority 2021, published 2024).
